From patent publication US5728563A, “Cyclic nucleotide phosphodiesterase and a method for production thereof” (Taisho Pharmaceutical Co., Ltd., priority 1993, dated 1998)
“Also recorded” adds a separate entry of the source.

Columns and labels:
Format in all cases: biochemical
[1] = tested on: cyclic nucleotide phosphodiesterase (the enzyme of the present invention) isolated from rat cerebral cortex; assay: Effects of inhibitors on the enzymatic activity (two-step assay, cAMP hydrolysis); conditions: for inhibition compared to PDEI, PDEIII or PDEIV: comparison with the known isozyme that the inhibitor acts on; for IC50: enzymatic activity in the absence of inhibitor made 100%
Description: The activity of the enzyme of the present invention was determined by the two-step assay (Masuoka et al., Biochem. Biophys. Res. Commun., 169, 315-322, 1990).
Using various inhibitors which are known to inhibit the activity of PDEI, III or IV, the enzymatic activity of the enzyme of the present invention was measured by varying the concentration of these inhibitors.
(§1) The mixture is reacted at 30° C. Ten minutes after, the reaction mixture is put in a heat bath of 100° C. to terminate the reaction in 5 minutes. That is, the enzyme of the present invention is inactivated by heating at 100° C. A test tube charged with the reaction mixture is then ice-cooled. Next, 50 μg of snake venom, which contains 5'-nucleotidase, is added to and reacted with the reaction mixture at 30° C. for 10 minutes. […] 5'-AMP, which is then with 5'-nucleotidase in snake venom to form [8-^3 H] adenosine. After 4 ml of water is added to this reaction mixture, the mixture is adsorbed onto a column packed with cation exchange resin (AG50 WX4, Bio-Rad). After thoroughly rinsing, the reaction product [8-^3 H] adenosine is eluted with 1.5 ml 3N NH4 OH. The radioactivity of the eluted [8-^3 H] adenosine is measured to determine the enzymatic activity of the present invention.
The enzymatic activity of the enzyme of the present invention was measured by varying the concentrations of various inhibitors. […] In more detail, during the reaction with the enzyme of the present invention in assaying for the enzymatic activity described in Example, an inhibitor having various concentrations was further added to the reaction mixture to determine the enzymatic activity.

[2] = tested on: cyclic nucleotide phosphodiesterase (the enzyme of the present invention) isolated from rat cerebral cortex; assay: Effect of metal ions on the enzymatic activity
Description: as §1

[3] = tested on: cyclic nucleotide phosphodiesterase (the enzyme of the present invention) isolated from rat cerebral cortex; assay: Substrate specificity, Km by double reciprocal plots; conditions: substrate varied 0.06 μM to 100 μM
[4] = tested on: cyclic nucleotide phosphodiesterase (the enzyme of the present invention) isolated from rat cerebral cortex; assay: Effect of activators (calcium-calmodulin, cGMP) on cAMP hydrolysis; conditions: 0.4 μg/ml calmodulin plus 0.2 mM calcium chloride versus 2 mM EGTA; or 10 μM cGMP
Description: Effects on the enzyme of the present invention were analyzed by adding 0.4 μg/ml calmodulin purified from bovine brain and 0.2 mM calcium chloride.
The mixture is reacted at 30° C. Ten minutes after, the reaction mixture is put in a heat bath of 100° C. to terminate the reaction in 5 minutes. That is, the enzyme of the present invention is inactivated by heating at 100° C. A test tube charged with the reaction mixture is then ice-cooled. Next, 50 μg of snake venom, which contains 5'-nucleotidase, is added to and reacted with the reaction mixture at 30° C. for 10 minutes. […] After 4 ml of water is added to this reaction mixture, the mixture is adsorbed onto a column packed with cation exchange resin (AG50 WX4, Bio-Rad). After thoroughly rinsing, the reaction product [8-^3 H] adenosine is eluted with 1.5 ml 3N NH4 OH. The radioactivity of the eluted [8-^3 H] adenosine is measured to determine the enzymatic activity of the present invention.

Compound | inhibition compared to PDEI, PDEIII or PDEIV [1] | IC50 [1] | effect as metal cation / cofactor for the enzymatic reaction [2] | also measured
O=C1CCc2cc(OCCCCc3nnnn3C3CCCCC3)ccc2N1 [cilostazol] | not inhibited | > 300 µM |  | 
COC(=O)C1=C(C)NC(C)=C(C(=O)OCCN(C)Cc2ccccc2)C1c1cccc([N+](=O)[O-])c1 (centres unmarked) [nicardipine] | less inhibited | > 300 µM |  | IC50 ([1]; unit inferred): > 300 µM
[Zn+2] [Zn^2+] |  |  | no ability as a cofactor | 
COc1ccc(Cc2nccc3cc(OC)c(OC)cc23)cc1OC [papaverine] |  |  |  | Ki ([1]; Dixon plots, varying cAMP and papaverine concentrations, read-out: inhibition constant (Ki value)): 0.036 µM
[Cl-].[Cl-].[Mg+2] [Magnesium, magnesium chloride] |  |  | most efficient metal cation | concentration at which the enzyme was activated [2]: 1 µM; concentration at which the maximum effect/activity was observed [2]: over 5 mM
COc1ccc(C2CNC(=O)C2)cc1OC1CCCC1 (centres unmarked) [rolipram] | less inhibited | > 300 µM |  | 
[Ba+2] [Ba^2+] |  |  | no ability as a cofactor | 
[Mn+2] [Manganese] |  |  | relatively stimulatory effect | 
CC(C)Cn1c(=O)n(C)c(=O)c2[nH]cnc21 [IBMX, 3-isobutyl-1-methylxanthine] |  | 26.5 ± 2.5 µM |  | 
Nc1nc2c(ncn2[C@@H]2O[C@@H]3COP(=O)(O)O[C@H]3[C@H]2O)c(=O)[nH]1 [cGMP, cyclic guanosine 3',5'-monophosphate] |  |  |  | Km [3]: 1.78 µM; activation of the enzyme / sensitivity of the enzymatic activity [4]: insensitive; also recorded: not activated
[Co+2] [Co^2+] |  |  |  | concentrations with inhibitory effect [2]: above 100 μM; concentrations with stimulatory effect [2]: less than 100 μM
CCCCOc1cc(CC2CNC(=O)N2)ccc1OC (centres unmarked) [Ro20-1724, 4-(3-buthoxy-4-methoxybenzyl)-2-imidazolidinone] | less inhibited | > 300 µM |  | 
[Ni+2] [Ni^2+] |  |  | no ability as a cofactor | 
[Ca+2] [Ca^2+] |  |  | no ability as a cofactor | 
[Cu+2] [Cu^2+] |  |  | no ability as a cofactor | 
CC(=O)Nc1ccc(-c2c[nH]c(=O)cn2)cc1 [SK&F94120, 5-(4-acetamidophenyl)pyrazin-1H-one] | not inhibited | > 300 µM |  | 
